Drawing on US20120128777A1, “COMPOSITIONS CONTAINING LIPID MICRO- OR NANOPARTICLES FOR THE ENHANCEMENT OF THE DERMAL ACTION OF SOLID PARTICLES” (PHARMASOL GMBH, priority 2008, published 2012), this text covers positive reactions for one compound.

This series deals with skin. To be noted: 50 volunteers, undiluted, patch 48 hours, read after 48 hours and after 72 hours.

SMILES strings stand for the structures.

For `CCCCCCCCCCCCOS(=O)(=O)[O-].[Na+]` [SDS, Sodium dodecyl sulphate], the positive reactions is given as 11 subjects.
